According to article PMC6920962, “Unravelling the Skin Secretion Peptides of the Gliding Leaf Frog, Agalychnis spurrelli (Hylidae)” (Biomolecules, 2019):
Values after ≈ are worked out from the molar mass of the structure shown. Values joined by “and” are separate entries in the source; they are usually repeats but may differ in a detail not shown here. Equal values may be shown once. Read-outs that look alike come from different tables or passages of the source. Marks after values point to notes of the source that are not given here. Ends that are not written are not given here.

Experiments:
[1] = system: Staphylococcus aureus ATCC 25923; parameters: method as in 4 sources, ref Cuesta et al., 2019 (41) ||| ref Charpantier, et al., 1998 (39) ||| ref Raja et al., 2013 (40) ||| ref Reimer et al., 1981 (42); settings: cited from earlier work
[2] = system: Escherichia coli ATCC 25922; parameters: method as in 6 sources, ref Cuesta et al., 2019 (41) ||| ref Charpantier, et al., 1998 (39) ||| ref Raja et al., 2013 (40) ||| ref Reimer et al., 1981 (42) ||| ref 20, 22 = [20]; PMID 17561225; doi:10.1016/j.toxicon.2007.04.017; 20. Conlon J.M. Woodhams D.C. Raza H. Coquet L. Leprince J. Jouenne T. Vaudry H. Rollins-Smith L.A. Peptides with Differential Cytolytic Activity from Skin Secretions of the Lemur Leaf Frog Hylomantis || [22]; PMID 23415652; doi:10.1016/j.biochi.2013.02.005; 22. Xi X. Li R. Jiang Y. Lin Y. Wu Y. Zhou M. Xu J. Wang L. Chen T. Shaw C. Medusins: A New Class of Antimicrobial Peptides from the Skin Secretions of Phyllomedusine Frogs Biochimie 2013 95 1288 1296 ||| ...; settings: cited from earlier work
[3] = cited from earlier work
P. aeruginosa = settings: cited from earlier work
[4] = system: S. aureus Oxacillin Resistant (ORSA Strain 20)
Description: (§1) For the in vitro evaluation of antimicrobial potentials of new biochemical structures identified herein, five synthetic peptides were purchased from a commercial supplier (Biomatik). Approximately 100 mg of each peptide was synthetized by Fmoc technology. […] The lyophilized peptides were kept at −20 °C and diluted in dimethyl sulfoxide (DMSO) before the antimicrobial assays, which were performed according to broth microdilution methodology detailed by Proaño et al.. Minimal inhibitory concentration of the synthetic peptides was determined against the following Gram-positive bacteria: Staphylococcus aureus ATCC 25923 and S. aureus oxacillin resistant strain; Gram-negative bacteria: Escherichia coli ATCC 25922 and Klebsiella pneumonia clinical isolate; and the opportunistic pathogenic yeast Candida albicans. Briefly, peptides were dissolved in DMSO at the following concentrations: 512, 256, 128, 64, 32, 16, 8, 4, 2, 1 […] mg/L. Each bacteria/yeast was cultured until reach log phase and then it was diluted to obtain 1 × 10^6 CFU/mL for bacteria and 1 × 10^5 CFU/mL for the yeast. Assays were prepared in 96 well sterile plates where 198 µL of each microorganism was challenged with 2 μL of the diluted peptides at the serial dilutions mentioned above. […] Another control included 200 μL of Muller Hinton broth without microorganisms to be used as blank with no growth. Seven replicates per peptide concentration was employed and experiments were performed in triplicates. […] MIC was determined as the minimal concentration of peptide required to inhibit the growth of >95% of microbial growth.

[5] = system: Klebsiella pneumonia clinical isolate
Description: as §1

Candida albicans [6] = system: Candida albicans; parameters: method as in Cuesta et al., 2019 (41); settings: broth microdilution; ref Cuesta et al., 2019 (41); cited from earlier work
Description: In this work, skin secretion from this amphibian was analysed by molecular cloning and tandem mass spectrometry.

[7] = system: Escherichia coli ATCC 25922; settings: ATCC 25922, 18 h
Description: as §1

[8] = system: Staphylococcus aureus ATCC 25923; settings: ATCC 25923, 18 h
Description: as §1

Candida albicans [9] = settings: 18 h
Description: as §1

red blood cells = assay type: cell-based
Description: Aiming to determine the toxicity of frog peptides to red blood cells, in vitro assays were performed with different concentrations of each peptide. The diluted peptides (employing the same concentrations than for the antimicrobial assay described above) were incubated with a suspension of red blood cells (2%) (7.7 × 10^6 ± 0.3 × 10^6 cells/mL) at a ratio of 1:1 (v/v), in a total volume of 400 µL for 2 h at 37 °C. After the incubation period, the cells were centrifuged at 3000 rpm for 5 min and transferred to a 96 well plates. The haemolytic activity was monitored at 550 nm and was performed in triplicate. PBS and 2% (v/v) Triton X-100 were used as negative and positive controls, respectively.

[10] = ref Reimer et al., 1981 (42), listed as ampicillin
[11] = ref Charpantier, et al., 1998 (39)
[12] = broth microdilution, 1 × 10^6 CFU/mL, 37 °C 18 h, OD 600 nm, MIC = >95% growth inhibition, seven replicates, triplicate experiments
[13] = broth microdilution, ref Cuesta et al., 2019 (41)
[14] = broth microdilution, ref Cuesta et al., 2019 (41), listed as dermaseptin-2

Molecule: CC1(C)S[C@@H]2[C@H](NC(=O)[C@H](N)c3ccccc3)C(=O)N2[C@H]1C(=O)O [Ampicillin]
- MIC S. aureus ATCC 25923 ([1]; ref Reimer et al., 1981 (42)): 0.1 **** μM
- MIC S. aureus ATCC 25923 [1, 10]: 0.1 µM (≈ 0.0349 µg/mL)
- MIC E. coli ATCC 25922 ([2]; ref Reimer et al., 1981 (42)): 6.0 **** μM
- MIC E. coli ATCC 25922 [2, 10]: 6 µM (≈ 2.1 µg/mL)

Molecule: ALWKDILKNVGKAAGKAVLNTVTDMVNQ-NH2 [Dermaseptin-B4, dermaseptin of P. bicolor]
- Concentration at which cytotoxicity was exhibited [3]: 12 µM
- MIC S. aureus ATCC 25923 [1, 11]: 3.00 ** μM
- MIC S. aureus ATCC 25923 ([1]; ref Charpantier, et al., 1998 (39), listed as DRS-B4): 3 µM
- MIC P. aeruginosa (P. aeruginosa): 4.6 to 11.6 µM
- MIC E. coli ATCC 25922 [2, 11]: 5.00 ** μM

Molecule: ALWKTMLKKLGTMALHAGKAALGAAADTISQGTQ [Dermaseptin-S1, dermaseptin of Phyllomedusa sauvagii]
- MIC S. aureus ATCC 25923 [1, 11]: 60.00 ** μM
- MIC E. coli ATCC 25922 [2, 11]: 46 μM and 46.00 ** μM

Molecule: ASWKVFLKNIGKAAGKAVLNSVTDMVNQ-NH2 [Dermaseptin-SP2]
- MIC S. aureus Oxacillin Resistant (ORSA Strain 20) ([4]; Oxacillin Resistant (ORSA Strain 20, 18 h)): 2.68 µM
- MIC S. aureus Oxacillin Resistant (ORSA Strain 20) [4, 12]: 8 µg/mL
- MIC S. aureus Oxacillin Resistant (ORSA Strain 20) ([4]; broth microdilution, 1 × 10^6 CFU/mL, 37 °C 18 h, OD 600 nm, MIC = >95% growth inhibition, seven replicates, triplicate experiments, listed as dermaseptin-2): 2.68 µM
- MIC K. pneumoniae Clinical Isolate ([5]; 18 h): 10.71 µM
- MIC K. pneumoniae Clinical Isolate [5, 12]: 32 µg/mL
- MIC S. aureus ATCC 25923 [1, 13]: 2.68 µM
- MIC S. aureus ATCC 25923 [1, 14]: 2.68 µM
- MIC C. albicans (Candida albicans [6]): 10.71 µM
- MIC E. coli ATCC 25922 [2, 13]: 2.68 µM
- MIC E. coli ATCC 25922 [2, 14]: 2.68 µM

Molecule: FLSLIPHIVSGVASIAKHFG [Phyloseptin-S1, phylloseptin of P. sauvagii]
- MIC S. aureus ATCC 25923 ([1]; ref Raja et al., 2013 (40)): 6.25 *** μM
- MIC E. coli ATCC 25922 ([2]; ref Raja et al., 2013 (40)): 70.00 *** μM

Molecule: FLSLIPHVISAIPHVVNALSNL-NH2 [Phylloseptin-SP1]
- MIC E. coli ATCC 25922 [7]: > 217.69 µM
- MIC S. aureus ATCC 25923 [8]: > 217.69 µM
- MIC C. albicans (Candida albicans [9]): > 217.69 µM
- MIC K. pneumoniae Clinical Isolate ([5]; 18 h): > 189.00 µM
- Toxicity to red blood cells compared with the dermaseptins (red blood cells): greater toxicity to red blood cells than did the dermaseptins

Molecule: SLRSSIKDMAAAAGRAALNAVNGIVNP-NH2 [Dermaseptin-SP5, novel dermaseptin of A. spurrelli, synthetic amidated peptide]
- MIC S. aureus ATCC 25923 [1, 13]: > 192.12 μM and > 512 mg/L
- MIC C. albicans (Candida albicans [6]): 384.24 μM and 1024 mg/L
- MIC E. coli ATCC 25922 [2, 13]: 96.06 μM and 256 mg/L

Molecule: SLWSSIKDMAAAAGRAALNAVNGILNP-NH2 [Dermaseptin-SP4]
- MIC K. pneumoniae Clinical Isolate ([5]; 18 h): 189.00 µM

Molecule: SLWSSIKDMAAAAGRAALNAVNGIVNP-NH2 [Dermaseptin-SP3]
- MIC K. pneumoniae Clinical Isolate ([5]; 18 h): > 189.98 µM
